Earlier results, collected in patent US20120122825A1, “USE OF PICOPLATIN TO TREAT PROSTATE CANCER” (Poniard Pharmaceuticals, Inc., priority 2009, published 2012).

How the values were obtained:
[1] = tested on: patients with solid tumors; conditions: picoplatin and docetaxel combination, 33 patients with solid tumors
[2] = 30 mg/m^2 docetaxel weekly for 5 of 6 weeks plus 5 mg prednisone twice daily

recommended Phase II dose (PTD) [1]: 75 mg/m^2
SMILES: CC(=O)O[C@@]12CO[C@@H]1C[C@H](O)[C@@]1(C)C(=O)[C@H](O)C3=C(C)[C@@H](OC(=O)[C@H](O)[C@@H](NC(=O)OC(C)(C)C)c4ccccc4)C[C@@](O)([C@@H](OC(=O)c4ccccc4)[C@H]21)C3(C)C [docetaxel]
dose limiting toxicity (DLT) dose [1]: 75 mg/m^2
>50% reductions in PSA, share of men (men with HRPC; [2]): 48%
Overall survival (men with HRPC; [2]): 17.4 months
PSA response expected (men with HRPC; docetaxel alone, comparison value): 45%
